Results published in patent US9062013B2, “Positive allosteric modulators of the α7 nicotinic acetylcholine receptor and uses thereof” (Bionomics Limited, priority 2011, dated 2015).

Legend:
scopolamine treated mice = test: T-maze Continuous Alternation Task (T-CAT), scopolamine-induced cognitive impairment; type: in vivo; settings: test compounds administered 60 min prior, scopolamine 20 min prior to the T-maze session
Text: Scopolamine is a muscarinic receptor antagonist which is used as a standard/reference drug for inducing cognitive deficits in healthy humans and animals.
The T-maze Continuous Alternation Task (T-CAT) measures spontaneous alternation, which is the innate tendency of mice to alternate free choices in a T-maze over a series of successive runs. This sequential procedure relies on working memory and is sensitive to various pharmacological manipulations affecting memory processes.
The T-maze apparatus is made of gray Plexiglas with a main stem (55 cm long×10 cm wide×25 cm high) and two arms (30 cm long×10 cm wide×25 cm high) positioned at 90 degree angle relative to the main stem. A start box (15 cm long×10 cm wide) is separated from the main stem by a sliding door. Sliding doors are also provided to close specific arms during the forced-choice alternation task.
The experimental protocol consists of one single session, which starts with 1 “forced-choice” trial, followed by 14 “free-choice” trials. In the first “forced-choice” trial, the animal is confined for 5 s in the start arm and then it is released while either the left or right goal arm is blocked by a sliding door. The animal will negotiate the maze, eventually enter the open goal arm, and return to the start position. Immediately after the return to the start position, the left or right goal door is opened and the animal is allowed to choose freely between the left and right goal arm (“free choice” trials). The animal is considered to have entered an arm when it places its four paws in the arm. A session is terminated and the animal is removed from the maze as soon as 14 free-choice trials have been performed or 10 min have elapsed, whichever event occurs first. The percentage of alternation over the 14 free-choice trials is determined for each mouse and is used as an index of working memory performance. This percentage is defined as entry in a different arm of the T-maze over successive visits (i.e., left-right-left-right, etc). Scopolamine administered 20 min prior the initiation of the 1-maze session is used to induce disruption in the spontaneous alternation of mice. Test compounds are administered 60 min prior the start of the T-maze session in order to evaluate their ability to reverse the scopolamine effect.
The apparatus is cleaned between each animal using alcohol (70°). Urine and feces are removed from the maze. During the trials, animal handling and the visibility of the operator are minimized as much as possible.

Row | melting point [°C] | Structure (SMILES) | improvement relative to the scopolamine treated mice (spontaneous alternation) (scopolamine treated mice)
1 | 131 to 133 | O=C(Nc1ccc(C(F)(F)F)cc1Cl)[C@@H]1[C@@H](c2ccccc2)C12CCCC2 (relative stereo) [Example 15a, trans-2-phenyl-N-[2-chloro-4-(trifluoromethyl)phenyl]spiro[2.4]heptane-1-carboxamide] | 
2 |  | NS(=O)(=O)c1ccc([C@@H]2[C@@H](C(=O)Nc3ccc(C(F)(F)F)cc3)C23CCCC3)cc1 (relative stereo) [Example 9b, trans-2-(4-sulfamoylphenyl)-N-(4-(trifluoromethyl)phenyl)spiro[2.4]heptane-1-carboxamide] | significant improvement
3 | 131 to 133 | COc1ccc(NC(=O)[C@@H]2[C@@H](c3ccccc3)C23CCCC3)c(OC)n1 (relative stereo) [Example 8a, trans-N-(2,6-dimethoxypyridin-3-yl)-2-phenylspiro[2.4]heptane-1-carboxamide] | 
4 | 152 to 154 | COc1ncccc1NC(=O)[C@@H]1[C@@H](c2ccccc2)C1(C)C (relative stereo) [Example 13a, trans-N-(2-methoxypyridin-3-yl)-2,2-dimethyl-3-phenylcyclopropanecarboxamide] | 
5 |  | COc1ccc(Cl)cc1NC(=O)[C@@H]1[C@@H](c2ccc(S(N)(=O)=O)cc2)C12CCCC2 (relative stereo) [Example 6b, trans-N-(5-Chloro-2-methoxyphenyl)-2-(4-sulfamoylphenyl)spiro[2.4]heptane-1-carboxamide] | significant improvement
6 | 120 to 122 | COc1ccc(Cl)cc1NC(=O)[C@@H]1[C@@H](c2ccc3c(c2)OC(F)(F)O3)C1(C)C (relative stereo) [Example 18d, trans-N-(5-Chloro-2-methoxyphenyl)-3-(2,2-difluoro-benzo[1,3]dioxol-5-yl)-2,2-dimethyl-cyclopropane carboxamide] | 
7 |  | COc1ccc(Cl)cc1NC(=O)[C@@H]1[C@@H](c2ccc(S(N)(=O)=O)cc2)C1(C)C (relative stereo) [Example 4b, trans-N-(5-Chloro-2-methoxyphenyl)-2,2-dimethyl-3-(4-sulfamoylphenyl)cyclopropanecarboxamide] | significant improvement
8 |  | CC1(C)[C@H](C(=O)Nc2cc(C(F)(F)F)n[nH]2)[C@H]1c1ccc(S(N)(=O)=O)cc1 (relative stereo) [Example 2b, 2,2-Dimethyl-trans-3-(4-sulfamoylphenyl)-N-(3-(trifluoromethyl)-1H-pyrazol-5-yl)cyclopropanecarboxamide] | significant improvement
9 | 171 to 173 | O=C(Nc1ccc(C(F)(F)F)cc1)[C@@H]1[C@@H](c2ccccc2)C12CCCC2 (relative stereo) [Example 9a, trans-2-phenyl-N-(4-(trifluoromethyl)phenyl)spiro[2.4]heptane-1-carboxamide] | 
10 | 162 to 164 | COc1ccc(Cl)cc1NC(=O)[C@@H]1[C@@H](c2ccc(Cl)cc2)C1(C)C (relative stereo) [Example 5a, trans-N-(5-Chloro-2-methoxyphenyl)-3-(4-chlorophenyl)-2,2-dimethylcyclopropanecarboxamide] | significant improvement
11 | 68 to 71 | CC1(C)[C@H](C(=O)Nc2cc(C(F)(F)F)n[nH]2)[C@H]1c1ccccc1 (relative stereo) [Example 2a, 2,2-Dimethyl-trans-3-phenyl-N-(3-(trifluoromethyl)-1H-pyrazol-5-yl)cyclopropanecarboxamide] | 
12 | 133 to 135 | COc1ccc(Cl)cc1NC(=O)[C@@H]1[C@@H](c2ccccc2)C12CCCC2 [Example 6a, trans-N-(5-Chloro-2-methoxyphenyl)-2-phenylspirol[2.4]heptane-1-carboxamide] | 
13 |  | CC1(C)[C@H](C(=O)Nc2ccncc2)[C@H]1c1ccc(S(N)(=O)=O)cc1 (relative stereo) [Example 10b, 2,2-Dimethyl-trans-N-(pyridin-4-yl)-3-(4-sulfamoylphenyl)cyclopropanecarboxamide] | significant improvement
14 | 132 to 135 | Cc1cnc(NC(=O)[C@@H]2[C@@H](c3ccccc3)C2(C)C)s1 (relative stereo) [Example 1a, 2,2-Dimethyl-trans-N-(5-methylthiazol-2-yl)-3-phenylcyclopropanecarboxamide] | 
15 | 110 to 113 | Cc1cccc([C@@H]2[C@@H](C(=O)Nc3ccc(F)c(F)c3)C2(C)C)c1 (relative stereo) [Example 16d, trans-N-(3,4-Difluoro-phenyl)-2,2-dimethyl-3-m-tolyl-cyclopropanecarboxamide] | 
16 | 160 to 162 | COc1cc(OC)c(NC(=O)[C@@H]2[C@@H](c3ccccc3)C2(C)C)cc1Cl (relative stereo) [Example 3a, trans-N-(5-Chloro-2,4-dimethoxyphenyl)-2,2-dimethyl-3-phenylcyclopropanecarboxamide] | 
17 | 148 to 150 | COc1ccc(Cl)cc1NC(=O)[C@@H]1[C@@H](c2cccc(C)c2)C1(C)C (relative stereo) [Example 17a, trans-N-(5-Chloro-2-methoxyphenyl)-2,2-dimethyl-3-m-tolyl-cyclopropanecarboxamide] | 
18 | 155 to 157 | COc1ccc(Cl)cc1NC(=O)[C@@H]1[C@@H](c2ccccc2)C1(C)C (relative stereo) [Example 4a, trans-N-(5-Chloro-2-methoxyphenyl)-2,2-dimethyl-3-phenylcyclopropanecarboxamide] | 
19 | 170 to 172 | COc1ccc(Cl)cc1NC(=O)[C@@H]1[C@@H](c2ccc(Br)cc2)C1(C)C (relative stereo) [Example 12c, trans-N-(5-Chloro-2-methoxyphenyl)-3-(4-bromophenyl)-2,2-dimethylcyclopropanecarboxamide] | 
